Laboratory results taken from US6361788B1, “Synergistic biocide composition” (Thor Chemie GmbH, priority 1997, dated 2002).
Read-outs that look alike come from different tables or passages of the source.

Tested on: Penicillium funiculosum
Assay: MIC and synergy of MIT/BIT (1:1) and BNPD in Sabouraud maltose broth, 72 h
Format: cell-based
Conditions: for growth of the microorganism: MIT/BIT 0 ppm; for MIC: Talaromyces funiculosus
Procedure: In all the examples in which an active substance mixture of MIT and BIT as well as additionally a further active biocidal substance was used, the weight ratio of MIT to BIT was 1:1.
The synergy index is calculated according to the method of F. C. Kull et al., Applied Microbiology, Vol. 9 (1961), p. 538. Here the synergy index is calculated using the following formula:
Synergy index SI=Qa/QA+Qb/QB.
The synergy of an active substance that contains 2-bromo-2-nitropropane-1,3-diol (BNPD) in addition to MIT and BIT, against the microorganism Penicillium funiculosum is shown as in Example 1.
The test batches contained a Sabouraud maltose broth as a nutrient medium. The spore concentration was 10^6 per mL. The incubation time was 72 h at 25° C. Each sample was incubated on an incubation shaker at 120 rpm.

[1] = MIT/BIT 0.0% by wt, BNPD 100.0% by wt, 72 h

O=[N+]([O-])C(Br)(CO)CO [BNPD, 2-bromo-2-nitropropane-1,3-diol]
Qb/QB [1]: 1.00 | Synergy index Qa/QA + Qb/QB [1]: 1.00 | growth of the microorganism (BNPD 25 ppm, 72 h): + | growth of the microorganism (BNPD 50 ppm, 72 h): + | growth of the microorganism (BNPD 100 ppm, 72 h): + | growth of the microorganism (BNPD 150 ppm, 72 h): + | growth of the microorganism (BNPD 200 ppm, 72 h): + | growth of the microorganism (BNPD 300 ppm, 72 h): + | growth of the microorganism (BNPD 400 ppm, 72 h): + | growth of the microorganism (BNPD 600 ppm, 72 h): − | growth of the microorganism (BNPD 800 ppm, 72 h): − | growth of the microorganism (BNPD 1000 ppm, 72 h): − | MIC (MIT/BIT 0.0% by wt, BNPD 100.0% by wt, 72 h, read-out: MIC at BNPD concentration Qb): 600 µg/mL | MIC (MIT/BIT 0.0% by wt, BNPD 100.0% by wt, 72 h, read-out: MIC at Total concentration MIT/BIT + BNPD): 600 µg/mL | MIC (used alone, 72 h at 25° C., read-out: MIC value): 600 µg/mL
